In patent US20250177533A1, “PHOTODYNAMIC THERAPY AND DIAGNOSIS” (RMW CHO Group Limited, priority 2021, published 2025):

Legend:
[1] = tested on: Human ovarian cancer cell line SKOV3; assay: Phototoxicity in SKOV3 cells (660 nm laser or LED, AlamarBlue viability); type: cell-based; conditions: SKOV3, 24 h uptake, 660 nm laser 50 mW/cm^2 for 5 mins (15 J/cm^2), viability 24 h later; read-out: Phototoxicity μM (IC90)
Text: All data are shown as mean±SD (where appropriate).
Media was then replaced with fresh media containing AlamarBlue, and % viable cells remaining assessed as above. […] All measurements were made in quadruplicate.

E coli DH5α cells = assay: Photosensitizer uptake into bacterial cells (absorbance spectra of lysates); type: cell-based; conditions: 50 μM, incubated overnight
Experimental: E coli DH5α cells were inoculated into LB media and incubated overnight (shaking at 37° C.) in the presence of 50 μM compound 1 or chlorin e4 disodium. Untreated cells acted as the control. The following day cells were harvested by centrifugation (5000 g, 10 mins, room temperature) and lysed by addition of PBS+1% SDS (w/v)+1% PVP-17 (w/v). Insoluble material was pelleted by centrifugation at 21,000 g (10 mins, bench top centrifuge) and the supernatant transferred to a fresh tube. A 100 μl aliquot was added to clear 96-well microtitre plates and absorbance spectra measured between 600-700 nm (Cytation 3 multimode plate reader). The optical density (OD) was plotted against wavelength in each case to determine uptake of photosensitizer into cells.

[2] = tested on: Human ovarian cancer cell line SKOV3; assay: Inherent cytotoxicity (dark toxicity) in SKOV3 cells (AlamarBlue viability); conditions: SKOV3, 24 h incubation, no light activation
Experimental: Serial dilutions were prepared in cell culture media (Dulbecco's Modified Eagle Medium/Nutrient Mixture F-12 (DMEM/F-12)) supplemented with 10% v/v Fetal Bovine Serum, 100 U/mL penicillin, 100 μg/mL streptomycin and the same excipient solution at a constant 1:55 dilution.
Human ovarian cancer cell line SKOV3 (ATCC #HTB-77) was maintained in Dulbecco's Modified Eagle Medium/Nutrient Mixture F-12 (DMEM/F-12), supplemented with 10% v/v Fetal Bovine Serum, 100 U/mL penicillin and 100 μg/mL streptomycin. Monolayer cultures were grown in a humidified incubator at 37° C. with 5% CO2. Once cells had reached ˜80% confluence, spent media was replaced with media containing photosensitizer at the required concentration and cells were incubated for the desired period of time to allow photosensitizer uptake.
Spectral absorbance and viability measurements were normalized in the range 0-100%, with a minimum of 0 and a maximum value determined from the dataset. Dose response was determined using a sigmoidal four-point non-linear regression with variable slope, and IC10 or IC90 calculated for each compound. All data are shown as mean±SD (where appropriate).
On reaching ˜60% confluence, media was aspirated and replaced with fresh media containing the relevant phyllochlorin analogue from 0-100 μM in DMSO.
Untreated cells were used as a control. […] All measurements were made in quadruplicate.
The phototoxicity and inherent cytotoxicity (i.e. “dark toxicity”) of phyllochlorin analogues were assessed as previously using SKOV3 ovarian cancer cells. For comparative purposes, phyllochlorin analogues were compared against chlorin e4 disodium and Talaporfin sodium, a clinically approved photosensitizer used in the photodynamic treatment of lung cancers.

[3] = tested on: SKOV3 ovarian cancer cells; assay: Photosensitizer uptake into SKOV3 cancer cells (absorbance of cell lysates at 405 nm); conditions: SKOV3, 5 μM
Experimental: SKOV3 cells were seeded in 96-well black wall plates (Greiner #655090) at a cell density of 5000 cells in 100 μl culture medium per well. […] Cells were incubated for up to 18 hours. At time periods of 10 min, 20 min, 30 min, 60 min, 2 hrs, 4 hrs and 18 hrs, media was removed and the cells lysed in 100 μl of lysis buffer (PBS+1% SDS+1% PVP+Benzonase Nuclease 500 units/mL). Each sample was snap-frozen on dry ice until use.
Eight point standard curves using compound 1 or chlorin e4 disodium were constructed in the range 0-10 μM using serial dilutions in lysis buffer. Cell lysates (100 μl) were thawed, centrifuged at room temperature (21,000 g, 10 mins) and the supernatants transferred to fresh tubes. 100 μl of each supernatant was added neat to 96-well microplates and absorbance measured at 405 nm using a Cytation 3 multimode plate reader. All wells were measured against blank wells containing buffer alone, and a background value measured using untreated cells was subtracted from all samples. The concentration of each chlorin species was determined against the appropriate standard curve in each case.
Chlorin e4 disodium (which enters cells via a passive diffusion process) was included as a comparator, and untreated cells were used as a control. Cells were harvested at time periods from 10 mins to 18 hours post addition of photosensitizers, cells were lysed and the supernatants measured for uptake of photosensitizers against an appropriate standard curve.

**Q.** With `C=Cc1c(C)c2cc3nc(c(C)c4[nH]c(cc5nc(cc1[nH]2)C(C)=C5CC)c(C)c4C(=O)O)[C@@H](CCC(=O)O)[C@@H]3C` [Chlorin e4 disodium, reference compound] as the molecule, how does the IC90 [1] read?
**A.** 21.3 µM

**Q.** And the “detection in bacterial lysates” value (E coli DH5α cells)?
**A.** detected marginally above background

**Q.** What about the “Dark toxicity μM (IC10)” value [2] of the same molecule?
**A.** 40.23 µM

**Q.** What about the detectability in cells [3] of the same molecule?
**A.** undetectable until after one hour of incubation

**Q.** And the “time of reaching maximum accumulation” value [3]?
**A.** 18 h
